Laboratory results: patent US10913721B2, “Crystalline form of aripiprazole” (Noratech Pharmaceuticals, Inc., priority 2016, dated 2021)
Entries after “also recorded” stand apart in the source; their conditions may differ.

Tests used:
[1] = Comparison test for the dissolution rate of crystalline forms of aripiprazole; type: physicochemical; conditions: 0.25% sodium dodecyl sulfate solution (900 mL), slurry method, 50 rpm, 37° C.±0.5° C.; 15-360 min; compared with hydrate A and the conventional hydrate (FIG. 7)
Description: Sample preparation: Powders of crystalline form N, hydrate A and the conventional hydrate of aripiprazole are respectively sieved through a 100-mesh sieve, and the appropriate amount of sieved material (equivalent to 50 mg of aripiprazole) is taken and measured to determine the dissolution rate of each sample.
Dissolution conditions: 0.25% sodium dodecyl sulfate solution (900 mL): slurry method: 50 rpm; 37° C.±0.5° C.
Sample detection: Samples of 3 ml are respectively taken at 15, 30, 60, 90, 120, 240, and 360 min, and immediately littered through a 0.45 μm microporous membrane, 2 mL of the initial filtrate is discarded, and the drug concentration in the subsequent filtrate is measured.

[2] = as stated in WO 03/026659; cited from earlier work

O=C1CCc2ccc(OCCCCN3CCN(c4cccc(Cl)c4Cl)CC3)cc2N1 [Crystalline form N, 7-{4-[4-(2,3-dichlorophenyl)-1-piperazinyl]-butoxy}-3,4-dihydroquinolone]
dissolution rate (release rate) [1]: slower release rate; also recorded: slower dissolution rate

O=C1CCc2ccc(OCCCCN3CCN(c4cccc(Cl)c4Cl)CC3)cc2N1 [type-I crystals]
hygroscopicity [2]: significant hygroscopicity
